This data set can be described thus: Small-angle x-ray scattering (SAXS), core-shell micelle model. Type of data set: physicochemical. As to the method: Peripherally restricted PICK1 inhibitor mPD5 ameliorates pain behaviors in murine inflammatory and neuropathic pain models.
SUPPORTING INFORMATION: Supplemental Table 1+2.
Supplemental Table 1. SAXS data collection and fitting table.
Buffer 50 mM Tris, 125 mM NaCl, pH 7.4
Extinction coefficient 11 000 M-1 cm-1
Molecular weight 1874 g/mol
Peptide concentration 0.19 - 9.37 mg/ml
SAXS data collection details
Instrument P12, Petra III, DESY [1]
Absolute calibration Water
Indirect Fourier Bayersapp.org transformations to obtain
Data rebin WillItRebin [4] […]
nmolec-hydrophilic [Å3] 2012 nmolec-hydrophobic [Å3] 377
Rtotal [Å] 22.6 (corresponding to a hydrophilic shell thickness of Dshell=10.4 Å) […]
[1] C. E. Blanchet, A. Spilotros, F. Schwemmer, M. A. Graewert, A. Kikhney, C. M. Jeffries, D. Franke, D. Mark, R. Zengerle, F.
Cipriani, S. Fiedler, M. Roessle, D. I. Svergun, J Appl Crystallogr 2015, 48, 431.
[2] S. Hansen, Journal of Applied Crystallography 2012, 45, 566.
[3] S. Hansen, Journal of Applied Crystallography 2014, 47, 1469.
[4] WillItFit MC Pedersen 2013. […]
Small Angle X-ray Scattering (SAXS).
Concentration series of mPD5 ranging from […] to 9.37 mg/mL was prepared in buffer containing 50 mM Tris-HCl (pH 7.4) and 125 mM NaCl. Samples were measured at the P12 SAXS Beamline, PetraIII, DESY, Hamburg Germany (2). Initial data processing including radial averaging and conversion of the data into absolute scaled scattering intensity, I(q), as a function of the scattering vector q, where q= 4π sin(θ)/λ (θ = half scattering angle, λ = x-ray wave length) was done using the standard software, procedures and settings at the beamline (2). The processed scattering data was merged, buffer subtracted, and binned using WillItRebin with a binning factor of 1.02. The modelling of the SAXS data was performed using a molecular constrained core-shell model for polydisperse spherical micelles. In brief, it was assumed that the peptide aggregated into polydisperse spherical micelles. Here, the hydrophobic tails form the core, and these are surrounded by the hydrophilic part (the shell) in a spherical micelle. For the modelling, total scattering lengths of 2.26e-10 cm and 2.96e-11 cm were used for the headgroups and tail, respectively. These were calculated by multiplying the […]
electrons) by the scattering length of the electron which is just the classical electron radium of 2.82 fm. For the scattering length density calculations, it was assumed that the molecular volume of the C13 alkyl chain,nmolec-hydrophobic, was 377 Å3 as estimated by Tanfords empirical formula (V = 27.4 + 26.9n!) where nC denotes the number of carbons. i.e. 13 in this case (3).
The hydrophilic headgroup,nmolec-hydrophilic, was as a first estimate assumed to have a mass density corresponding to that of a soluble protein (i.e. 1.35 g/cm3), this yielded a molecular volume of 2078 Å3. This value was then taken as a free parameter in the fits and refined to a molecular volume of ~2010 Å3 corresponding to a mass density of 1.39 g/cm3 and with very little variation over the fits to the different sample concentrations. Excess scattering length densities of the core and shell of the micelle were then calculated in relation to the scattering length density of water (9.4e10 1/cm2). Using this molecular constrained model, the volumes of the core and of the shell were coupled internally through the fitted aggregation number, Nagg and the implicit […]
The relative polydispersity, srelative was described by a Gauss function of Nagg. The Gauss was truncated at ±3s. Through the fits, this value is refined to srelative values of the aggregation number at ~30% for the highest concentrations to up to 50% for the lowest concentrations. Note, however, that this variation in the particle volume translates to about 10%-15% variation of the particle radius. A full overview of the resulting fit-parameters is provided in Supplemental Table S1. As usual a small surface roughness (typical at the order of 2Å) and a small constant background were also […]

The mark [1] stands for this setting: SAXS pair-distance distribution p(r).
The mark [2] stands for this setting: spherical core-shell model fit, average.

“And” between values parts separate entries of the source, which are not always exact repeats. Equal entries are not always repeated.

Turning to `CCCCCCCCCCCCCC(=O)N(CCOCCOCCC(=O)N[C@@H](Cc1c[nH]cn1)C(=O)N[C@@H](Cc1c[nH]c2ccccc12)C(=O)N[C@@H](CC(C)C)C(=O)N[C@@H](CCCCN)C(=O)N[C@H](C(=O)O)C(C)C)CCOCCOCCC(=O)N[C@@H](Cc1c[nH]cn1)C(=O)N[C@@H](Cc1c[nH]c2ccccc12)C(=O)N[C@@H](CC(C)C)C(=O)N[C@@H](CCCCN)C(=O)N[C@H](C(=O)O)C(C)C` [mPD5, myristoyl-NPEG4-(HWLKV)2], under setting [1], the Dmax entry is recorded as “approximately 50 Å” and the “radius of gyration (Rg)” value is “approximately 30 Å”. Also, the “Nagg, core shell model fit of single samples” value (five samples of the series 0.19 - 9.37 mg/ml, concentration of each column not given) is 18.7 and 21.5 and 22.2 and 21.0 and 19.0. Under setting [2], the “hydrophobic core radius (Rcore)” value was found to be 12.2 Å, the “shell thickness (Dshell)” value came to 10.4 Å and the “total radius (Rtotal)” value was found to be 22.6 Å.

Values taken from paper PMC11530130, “Peripherally restricted PICK1 inhibitor mPD5 ameliorates pain behaviors in murine inflammatory and neuropathic pain models” (JCI Insight, 2024).
